Here are results for 14 compounds from patent US9409908B2 (priority 2012, dated 2016).

Assay [1] concerns the target purified human plasma kallikrein (Homo sapiens (Human), UniProt P03952). The assay can be described thus: biochemical. It is filed as biochemical.
Assay [2] deals with purified human Factor XIa (Homo sapiens (Human), UniProt P03951). Description: biochemical. It is filed as biochemical.

Counter-ions that a name gives are not always drawn. Like-named read-outs stand apart in the source and are kept apart here.

purified human Factor XIa, sequence (P03951 whole entry, looked up): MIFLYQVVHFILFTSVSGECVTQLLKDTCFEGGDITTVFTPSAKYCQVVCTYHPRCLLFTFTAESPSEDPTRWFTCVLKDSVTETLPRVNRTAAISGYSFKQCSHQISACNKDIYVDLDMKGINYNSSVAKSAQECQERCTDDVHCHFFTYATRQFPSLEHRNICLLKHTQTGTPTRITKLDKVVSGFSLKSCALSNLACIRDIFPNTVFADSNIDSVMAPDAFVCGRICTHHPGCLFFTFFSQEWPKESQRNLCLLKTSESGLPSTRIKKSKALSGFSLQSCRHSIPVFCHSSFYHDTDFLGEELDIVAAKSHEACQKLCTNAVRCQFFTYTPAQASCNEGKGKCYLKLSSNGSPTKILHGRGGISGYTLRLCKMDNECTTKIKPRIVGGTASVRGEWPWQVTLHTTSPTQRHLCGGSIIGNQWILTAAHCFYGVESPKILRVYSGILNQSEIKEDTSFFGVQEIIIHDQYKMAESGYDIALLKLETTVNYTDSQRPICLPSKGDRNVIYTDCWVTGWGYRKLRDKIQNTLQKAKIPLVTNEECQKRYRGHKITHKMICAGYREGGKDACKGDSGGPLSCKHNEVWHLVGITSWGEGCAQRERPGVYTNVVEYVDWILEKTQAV
purified human Factor XIa, sequence (P03951 whole entry partner, looked up): as the sequence (P03951 whole entry, looked up) above
purified human plasma kallikrein, sequence (P03952 whole entry, looked up): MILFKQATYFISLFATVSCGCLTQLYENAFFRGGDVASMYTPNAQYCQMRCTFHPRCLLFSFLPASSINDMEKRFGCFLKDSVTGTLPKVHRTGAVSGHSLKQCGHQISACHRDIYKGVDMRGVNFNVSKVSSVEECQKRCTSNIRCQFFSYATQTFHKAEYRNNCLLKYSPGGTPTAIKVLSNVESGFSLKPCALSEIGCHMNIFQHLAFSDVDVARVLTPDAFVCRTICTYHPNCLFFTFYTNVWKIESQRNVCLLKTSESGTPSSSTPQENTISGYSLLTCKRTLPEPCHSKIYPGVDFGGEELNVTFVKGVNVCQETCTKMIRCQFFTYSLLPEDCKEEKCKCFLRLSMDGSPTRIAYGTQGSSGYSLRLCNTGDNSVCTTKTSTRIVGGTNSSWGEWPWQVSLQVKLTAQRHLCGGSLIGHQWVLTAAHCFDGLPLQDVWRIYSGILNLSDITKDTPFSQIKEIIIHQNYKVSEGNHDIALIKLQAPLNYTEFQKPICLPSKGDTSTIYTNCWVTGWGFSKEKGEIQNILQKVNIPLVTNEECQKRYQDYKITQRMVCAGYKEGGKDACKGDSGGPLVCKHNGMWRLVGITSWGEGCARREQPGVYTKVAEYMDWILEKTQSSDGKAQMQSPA
purified human plasma kallikrein, sequence (P03952 whole entry partner, looked up): as the sequence (P03952 whole entry, looked up) above

The Ki is a dissociation constant, usually derived from enzyme kinetics or from competition with a known ligand. Consider `C[C@@H]1CCC[C@H](N2CCC(c3c(N)ccc(Cl)c3F)=CC2=O)c2cc(ccn2)-c2ccccc2NC1=O` [Example 66, (10R,14S)-14-[4-(6-Amino-3-chloro-2-fluorophenyl)-6-oxo-1,2,3,6-tetrahydropyridin-1-yl]-10-methyl-8,16-diazatricyclo[13.3.1.0^2,7]nonadeca-1(19),2,4,6,15,17-hexaen-9-one, TFA salt], for which the inhibition constant (Ki) in assay [1] (read-out: Plasma Kallikrein Ki) came out at 45 nM; in assay [2] (read-out: Factor XIa Ki), 66.6 nM.
`COC(=O)Nc1ccc2c(c1)NC(=O)[C@H](C)CCC[C@H](N1CCC(c3cccc(C)c3C)=CC1=O)c1cc-2ccn1` [Example 114, Methyl-N-[(10R,14S)-14-[4-(2,3-dimethylphenyl)-6-oxo-1,2,3,6-tetrahydropyridin-1-yl]-10-methyl-9-oxo-8,16-diazatricyclo[13.3.1.0^2,7]nonadeca-1(18),2,4,6,15(19),16-hexaen-5-yl]carbamate]: the values for the Ki in assay [1] (read-out: Plasma Kallikrein Ki) and in assay [2] (read-out: Factor XIa Ki) were 143 nM and 108 nM, respectively.
On to `C[C@@H]1CCC[C@H](n2ccc(-c3c(F)ccc(Cl)c3F)cc2=O)c2cc(ccn2)-c2ccncc2NC1=O` [Example 185, (10R,14S)-14-[4-(3-chloro-2,6-difluorophenyl)-2-oxo-1,2-dihydropyridin-1-yl]-10-methyl-5,8,16-triazatricyclo[13.3.1.0^2,7]nonadeca-1(19),2(7),3,5,15,17-hexaen-9-one], for which the Ki in assay [1] (Plasma Kallikrein Ki) amounted to 47.4 nM; in assay [2], 22.8 nM.
In the case of `Cc1nnc(Nc2ccc3c(c2)NC(=O)[C@H](C)CCC[C@H](N2CCC(c4c(F)ccc(Cl)c4F)=CC2=O)c2cc-3ccn2)o1` [Example 21, (10R,14S)-14-[4-(3-Chloro-2,6-difluorophenyl)-6-oxo-1,2,3,6-tetrahydropyridin-1-yl]-10-methyl-5-[(5-methyl-1,3,4-oxadiazol-2-yl)amino]-8,16-diazatricyclo[13.3.1.0^2,7]nonadeca-1(19),2(7),3,5,15,17-hexaen-9-one, TFA salt], the figures for the inhibition constant Ki in assay [1] (read-out: Plasma Kallikrein Ki) and in assay [2] (read-out: Factor XIa Ki) were 1 nM and 0.46 nM, respectively.
Consider `C[C@@H]1CCC[C@H](N2CCC(c3cc(Cl)ccc3-n3ccnn3)=CC2=O)c2cc(ccn2)-c2cc(F)ccc2NC1=O` [Example 188, (10R,14S)-14-{4-[5-chloro-2-(1H-1,2,3-triazol-1-yl)phenyl]-6-oxo-1,2,3,6-tetrahydropyridin-1-yl}-4-fluoro-10-methyl-8,16-diazatricyclo[13.3.1.0^2,7]nonadeca-1(19),2(7),3,5,15,17-hexaen-9-one], for which the Ki in assay [1] (read-out: Plasma Kallikrein Ki) stood at 23.2 nM; in assay [2] (read-out: Factor XIa Ki), 1.6 nM.
The corresponding values for `C[C@@H]1CCC[C@H](N2CCC(c3c(F)ccc(Cl)c3F)=CC2=O)c2cc(ccn2)-c2cc(Br)c(N)cc2NC1=O` [Example 193, (10R,14S)-5-amino-4-bromo-14-[4-(3-chloro-2,6-difluorophenyl)-6-oxo-1,2,3,6-tetrahydropyridin-1-yl]-10-methyl-8,16-diazatricyclo[13.3.1.0^2,7]nonadeca-1(19),2(7),3,5,15,17-hexaen-9-one, 2 TFA salt] are 3.91 nM and 1.02 nM.
The corresponding values for `C[C@@H]1CCC[C@H](N2CCC(c3c(F)ccc(Cl)c3F)=CC2=O)c2cc(ccn2)-c2cc(CO)ccc2NC1=O` [Example 148, (10R,14S)-14-[4-(3-chloro-2,6-difluorophenyl)-6-oxo-1,2,3,6-tetrahydropyridin-1-yl]-4-(hydroxymethyl)-10-methyl-8,16-diazatricyclo[13.3.1.0^2,7]nonadeca-1(19),2(7),3,5,15,17-hexaen-9-one] are 118 nM and 90.1 nM.
As to `C[C@@H]1CCC[C@H](N2CCC(c3c(-c4cccnc4)ccc(Cl)c3F)=CC2=O)c2cc(ccn2)-c2ccccc2NC1=O` [Example 58, (10R,14S)-14-{4-[3-Chloro-2-fluoro-6-(pyridin-3-yl)phenyl]-6-oxo-1,2,3,6-tetrahydropyridin-1-yl}-10-methyl-8,16-diazatricyclo[13.3.1.0^2,7]nonadeca-1(19),2,4,6,15,17-hexaen-9-one, TFA salt], the inhibition constant Ki is 179 nM in assay [1] (read-out: Plasma Kallikrein Ki) and 15.1 nM in assay [2] (read-out: Factor XIa Ki).
The like results for `COC(=O)c1ccc2c(c1)-c1ccnc(c1)[C@@H](N1CCC(c3c(F)ccc(Cl)c3F)=CC1=O)CCC[C@@H](C)C(=O)N2` [Example 144, Methyl (10R,14S)-14-[4-(3-chloro-2,6-difluorophenyl)-6-oxo-1,2,3,6-tetrahydropyridin-1-yl]-10-methyl-9-oxo-8,16-diazatricyclo[13.3.1.0^2,7]nonadeca-1(19),2(7),3,5,15,17-hexaene-4-carboxylate] were, in that order, 108 nM and 186 nM.
`COC(=O)Nc1ccc2c(c1)NC(=O)[C@H](C)CCC[C@H](N1CCC(c3c(OC)ccc(Cl)c3F)=CC1=O)c1cc-2ccn1` [Example 1, Methyl N-[(10R,14S)-14-[4-(3-chloro-2-fluoro-6-methoxyphenyl)-6-oxo-1,2,3,6-tetrahydropyridin-1-yl]-10-methyl-9-oxo-8,16-diazatricyclo[13.3.1.0^2,7]nonadeca-1(19),2,4,6,15,17-hexaen-5-yl]carbamate, TFA salt]: the Ki turned out to be 10 nM in assay [1] (read-out: Plasma Kallikrein Ki) and 0.87 nM in assay [2] (read-out: Factor XIa Ki).
The corresponding values for `C[C@@H]1CCC[C@H](N2CCC(c3c(F)ccc(Cl)c3F)=CC2=O)c2cc(ccn2)-c2cc(F)c(F)cc2NC1=O` [Example 205, (10R,14S)-14-[4-(3-chloro-2,6-difluorophenyl)-6-oxo-1,2,3,6-tetrahydropyridin-1-yl]-4,5-difluoro-10-methyl-8,16-diazatricyclo[13.3.1.0^2,7]nonadeca-1(19),2(7),3,5,15,17-hexaen-9-one, TFA salt] are 88.4 nM and 69.2 nM.
The corresponding values for `C[C@@H]1CCC[C@H](N2CCC(c3c(Br)ccc(Cl)c3F)=CC2=O)c2cc(ccn2)-c2c(F)cc(F)cc2NC1=O` [Example 202, (10R,14S)-14-[4-(6-bromo-3-chloro-2-fluorophenyl)-6-oxo-1,2,3,6-tetrahydropyridin-1-yl]-3,5-difluoro-10-methyl-8,16-diazatricyclo[13.3.1.0^2,7]nonadeca-1(19),2(7),3,5,15,17-hexaen-9-one] are 30.1 nM and 8.56 nM.
The like results for `COC(=O)Nc1ccc2c(c1)NC(=O)[C@H](C)CCC[C@H](N1CCC(c3nccc(Cl)c3OC)=CC1=O)c1cc-2cc(OC)n1` [Example 6, Methyl N-[(10R,14S)-14-[4-(4-chloro-3-methoxypyridin-2-yl)-6-oxo-1,2,3,6-tetrahydropyridin-1-yl]-17-methoxy-10-methyl-9-oxo-8,16-diazatricyclo[13.3.1.0^2,7]nonadeca-1(18),2,4,6,15(19),16-hexaen-5-yl]carbamate, TFA salt] were, in that order, 303 nM and 158 nM.
Turning to `COC(=O)Nc1ccc2c(c1)NC(=O)[C@H](C)CCC[C@H](N1CCC(c3cc(C)ccc3F)=CC1=O)c1cc-2ccn1` [Example 113, Methyl N-[(10R,14S)-14-[4-(2-fluoro-5-methylphenyl)-6-oxo-1,2,3,6-tetrahydropyridin-1-yl]-10-methyl-9-oxo-8,16-diazatricyclo[13.3.1.0^2,7]nonadeca-1(18),2,4,6,15(19),16-hexaen-5-yl]carbamate], the inhibitory constant (Ki) in assay [1] (read-out: Plasma Kallikrein Ki) turned out to be 15.6 nM; in assay [2] (read-out: Factor XIa Ki) it was 7.24 nM.
